Data on 28 molecules can be found in US8729089B2 (Gilead Sciences, Inc., priority 2006, dated 2014).

The subject of data set [1] is HCV replicon in human hepatoma Huh-7 cell line. Kind of data set: Anti-HCV replicon assay (EC50, luciferase). To be noted: Hepatitis C virus, Huh-7, 72 h. The class given is cell-based. Put shortly: (§1)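 Cytotoxicity (CC50) measured by CellTiter-Glo and antiviral activity (EC50) by luciferase signal from lysed cells, both by luminescence. Replicon-bearing Huh-7 cells, 6000 per well, incubated 3 days at 37 °C with threefold-diluted compound (0.5% DMSO for DMSO-dissolved compounds).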
On the technique in general: A replicon is a self-replicating genome or part of one, used to study replication in cells.

Data set [2] in a line: CC50 assay (CellTiter-Glo) in Huh-7 HCV replicon cells. The class given is cell-based, human. The following applies: human, 3 days incubation, CellTiter-Glo readout. The gist of the method: as §1
(In general: Cellular ATP, detected with luciferase, serves as a proxy for viable cell number.)

`CCOc1nc(N[C@H](C)c2ccccc2)nc2ccc(-c3ccc(F)cc3)nc12` [Example 113, [4-Ethoxy-6-(4-fluoro-phenyl)-pyrido[3,2-d]pyrimidin-2-yl]-(1-phenyl-ethyl)-amine]: in data set [1], the EC50 is under 0.1 µM. In data set [2], the half-maximal cytotoxic concentration (CC50) at 3 days is over 25 µM.
The molecule `CCOc1nc(NCc2nccs2)nc2ccc(-c3ccc(F)cc3)nc12` [Example 114, [4-Ethoxy-6-(4-fluoro-phenyl)-pyrido[3,2-d]pyrimidin-2-yl]-thiazol-2-ylmethyl-amine] returned an EC50 in data set [1] of under 0.1 µM. This molecule also showed a CC50 at 3 days in data set [2] of 5 to 25 µM.
In the case of `CCOc1nc(NCc2cocn2)nc2ccc(-c3ccc(F)cc3)nc12` [Example 115, [4-Ethoxy-6-(4-fluoro-phenyl)-pyrido[3,2-d]pyrimidin-2-yl]-oxazol-4-ylmethyl-amine], the EC50 in data set [1] was under 0.1 µM. In data set [2], this molecule showed a 50% cytotoxic concentration (CC50) at 3 days of 5 to 25 µM.
The molecule `CCOc1nc(NCc2ccon2)nc2ccc(-c3ccc(F)cc3)nc12` [Example 116, [4-Ethoxy-6-(4-fluoro-phenyl)-pyrido[3,2-d]pyrimidin-2-yl]-isoxazol-3-ylmethyl-amine] had an EC50 in data set [1] of under 0.1 µM. The molecule also came in with a cytotoxic concentration (CC50) at 3 days in data set [2] of over 25 µM.
Take `CCOc1nc(NCc2ccc(CS(=O)(=O)NC(C)C)cc2)nc2ccc(-c3ccc(F)cc3)nc12` [Example 117, C-(4-{[4-Ethoxy-6-(4-fluoro-phenyl)-pyrido[3,2-d]pyrimidin-2-ylamino]-methyl}-phenyl)-N-isopropyl-methanesulfonamide]: the concentration giving a half-maximal response (EC50) in data set [1] is under 0.1 µM. In data set [2], this molecule registered a 50% cytotoxic concentration (CC50) at 3 days of 5 to 25 µM.
Molecule `CCOc1nc(NCCc2ccccc2)nc2ccc(-c3ccc(F)cc3)nc12` [Example 118, [4-Ethoxy-6-(4-fluoro-phenyl)-pyrido[3,2-d]pyrimidin-2-yl]-phenethyl-amine] registered an EC50 in data set [1] of under 0.1 µM. The same molecule yielded a CC50 at 3 days in data set [2] of 5 to 25 µM.
For the molecule `CCOc1nc(NCc2ccc(S(C)(=O)=O)cc2)nc2ccc(-c3ccc(F)cc3)nc12` [Example 119, [4-Ethoxy-6-(4-fluoro-phenyl)-pyrido[3,2-d]pyrimidin-2-yl]-(4-methanesulfonyl-benzyl)-amine], in data set [1], the EC50 was under 0.1 µM. The same molecule registered a CC50 at 3 days in data set [2] of under 5 µM.
`CCOc1nc(NCc2ccc(S(N)(=O)=O)cc2)nc2ccc(-c3ccc(NC(=O)[C@H]4CCNC4)c(F)c3)nc12` [Example 120, (S)-4-{[4-Ethoxy-6-(3-fluoro-4-(pyrrolidine-3-carboxamido)-phenyl)-pyrido[3,2-d]pyrimidin-2-ylamino]-methyl}-benzenesulfonamide] gave an EC50 in data set [1] of under 0.1 µM. The molecule further returned a CC50 at 3 days in data set [2] of 5 to 25 µM.
For `CCOc1nc(NCc2ccc(S(N)(=O)=O)cc2)nc2ccc(-c3ccc(NC(=O)[C@H]4CCNC4)cc3)nc12` [Example 121, (S)-4-{[4-Ethoxy-6-(4-(pyrrolidine-3-carboxamido)-phenyl)-pyrido[3,2-d]pyrimidin-2-ylamino]-methyl}-benzenesulfonamide] the same measures were under 0.1 µM and over 25 µM.
In data set [1], `CCOc1nc(NCc2ccc(S(N)(=O)=O)cc2)nc2ccc(-c3ccc(N4CCC(O)C4=O)cc3)nc12` (centres unmarked) [Example 122, 4-{[4-Ethoxy-6-(4-(3-hydroxy-2-oxopyrrolidin-1-yl)-phenyl)-pyrido[3,2-d]pyrimidin-2-ylamino]-methyl}-benzenesulfonamide] returned a half-maximal effective concentration (EC50) of under 0.1 µM. The half-maximal cytotoxic concentration (CC50) at 3 days in data set [2] was over 25 µM.
For `CCOc1nc(NCc2ccc(S(N)(=O)=O)cc2)nc2ccc(-c3ccc(NC(=O)NCCN4CCOCC4)cc3)nc12` [Example 123, 4-{[4-Ethoxy-6-(4-(3-(2-(morpholin-4-yl)ethyl)ureido)-phenyl)-pyrido[3,2-d]pyrimidin-2-ylamino]-methyl}-benzenesulfonamide] the same measures were under 0.1 µM and 5 to 25 µM.
The molecule `CCOc1nc(NCc2ccc(S(N)(=O)=O)cc2)nc2ccc(-c3ccc(NC(=O)NCCN4CCCC4)cc3)nc12` [Example 124, 4-{[4-Ethoxy-6-(4-(3-(2-(pyrrolidin-1-yl)ethyl)ureido)-phenyl)-pyrido[3,2-d]pyrimidin-2-ylamino]-methyl}-benzenesulfonamide] yielded a half-maximal effective concentration (EC50) in data set [1] of under 0.1 µM. This molecule displayed a 50% cytotoxic concentration (CC50) at 3 days in data set [2] of 5 to 25 µM.
Regarding `CCOc1nc(NCc2ccc(S(N)(=O)=O)cc2)nc2ccc(-c3ccc(NC(=O)OCCN4CCCC4)cc3)nc12` [Example 125], in data set [1], the concentration giving a half-maximal response (EC50) is under 0.1 µM. The molecule also registered a CC50 at 3 days in data set [2] of under 5 µM.
Molecule `CCOc1nc(NCc2ccc(S(N)(=O)=O)cc2)nc2ccc(-c3cnc(N)s3)nc12` [Example 126, 4-{[4-Ethoxy-6-(2-aminothiazole-5-yl)-pyrido[3,2-d]pyrimidin-2-ylamino]-methyl}-benzenesulfonamide] showed an EC50 in data set [1] of under 0.1 µM. The molecule also yielded a CC50 at 3 days in data set [2] of under 5 µM.
In the case of `CCOc1nc(NCc2ccc(S(N)(=O)=O)cc2)nc2ccc(-c3ccc(F)c(Cl)c3)nc12` [Example 127, 4-{[4-Ethoxy-6-(3-chloro-4-fluorophenyl)-pyrido[3,2-d]pyrimidin-2-ylamino]-methyl}-benzenesulfonamide], the half-maximal effective concentration (EC50) in data set [1] was under 0.1 µM. The 50% cytotoxic concentration (CC50) at 3 days in data set [2] is under 5 µM.
For `CCOc1nc(NCc2ccc(S(N)(=O)=O)cc2)nc2ccc(-c3ccc(NC(=O)N4CCOCC4)cc3)nc12` [Example 128, 4-{[4-Ethoxy-6-(4-(morpholine-4-carboxamido)-phenyl)-pyrido[3,2-d]pyrimidin-2-ylamino]-methyl}-benzenesulfonamide], the EC50 in data set [1] is under 0.1 µM. This molecule returned a 50% cytotoxic concentration (CC50) at 3 days in data set [2] of 5 to 25 µM.
`CCOc1nc(NCc2ccc(S(N)(=O)=O)cc2)nc2ccc(-c3ccc(NC(=O)N4CCCC4)cc3)nc12` [Example 129, 4-{[4-Ethoxy-6-(4-(pyrrolidine-1-carboxamido)-phenyl)-pyrido[3,2-d]pyrimidin-2-ylamino]-methyl}-benzenesulfonamide] gave a half-maximal effective concentration (EC50) in data set [1] of under 0.1 µM. This molecule also yielded a CC50 at 3 days in data set [2] of over 25 µM.
In data set [1], `CCOc1nc(NCc2ccc(S(N)(=O)=O)cc2)nc2ccc(-c3ccc(NC(N)=O)cc3)nc12` [Example 130, 4-{[4-Ethoxy-6-(4-ureidophenyl)-pyrido[3,2-d]pyrimidin-2-ylamino]-methyl}-benzenesulfonamide] yielded an EC50 of under 0.1 µM. Moreover, the 50% cytotoxic concentration (CC50) at 3 days in data set [2] fell in the range of 5 to 25 µM.
The corresponding values for `CCOc1nc(NCc2ccc(S(N)(=O)=O)cc2)nc2ccc(-c3ccc(NC(=O)NC4CC4)cc3)nc12` [Example 131, 4-{[4-Ethoxy-6-(4-(3-cyclopropylureido)-phenyl)-pyrido[3,2-d]pyrimidin-2-ylamino]-methyl}-benzenesulfonamide] are under 0.1 µM and 5 to 25 µM.
As to `CCOc1nc(NCc2ccc(S(N)(=O)=O)cc2)nc2ccc(-c3cccc(NS(=O)(=O)N(C)C)c3)nc12` [Example 132], the EC50 in data set [1] is under 0.1 µM. This molecule showed a cytotoxic concentration (CC50) at 3 days in data set [2] of under 5 µM.
The corresponding values for `CCOc1nc(NCc2ccc(S(N)(=O)=O)cc2)nc2ccc(-c3cccc(S(N)(=O)=O)c3)nc12` [Example 133, 4-{[4-Ethoxy-6-(3-(aminosulfonyl)-phenyl)-pyrido[3,2-d]pyrimidin-2-ylamino]-methyl}-benzenesulfonamide] are under 0.1 µM and 5 to 25 µM.
In data set [1], `CCOc1nc(NCc2ccc(S(N)(=O)=O)cc2)nc2ccc(-c3ccc(S(N)(=O)=O)cc3)nc12` [Example 134, 4-{[4-Ethoxy-6-(4-(aminosulfonyl)-phenyl)-pyrido[3,2-d]pyrimidin-2-ylamino]-methyl}-benzenesulfonamide] showed an EC50 of under 0.1 µM. Further, in data set [2], the CC50 at 3 days lay within 5 to 25 µM.
With `CCOc1nc(NCc2ccc(S(N)(=O)=O)cc2)nc2ccc(-c3ccc(NC(=O)C(C)(C)N)cc3)nc12` [Example 135, 4-{[4-Ethoxy-6-(4-((2-amino-2-propyl)-carboxamido)-phenyl)-pyrido[3,2-d]pyrimidin-2-ylamino]-methyl}-benzenesulfonamide], the EC50 in data set [1] is under 0.1 µM. Also, the CC50 at 3 days in data set [2] was under 5 µM.
`CCOc1nc(NCc2ccc(S(N)(=O)=O)cc2)nc2ccc(-c3ccc(NC(=O)C4(O)CC4)cc3)nc12` [Example 136, 4-{[4-Ethoxy-6-(4-((1-hydroxy-1-cyclopropyl)-carboxamido)-phenyl)-pyrido[3,2-d]pyrimidin-2-ylamino]-methyl}-benzenesulfonamide] showed a 50% effective concentration (EC50) in data set [1] of under 0.1 µM. The CC50 at 3 days in data set [2] was in the range of 5 to 25 µM.
For the molecule `CCOc1nc(NCc2ccc(S(N)(=O)=O)cc2)nc2ccc(-c3ccc(NC(=O)[C@@H](N)CO)cc3)nc12` [Example 137, (S)-4-{[4-Ethoxy-6-(4-((2-hydroxy-1-aminoethyl)-carboxamido)-phenyl)-pyrido[3,2-d]pyrimidin-2-ylamino]-methyl}-benzenesulfonamide], in data set [1], the EC50 is under 0.1 µM. The molecule further gave a CC50 at 3 days in data set [2] of 5 to 25 µM.
As for `CCOc1nc(NCc2ccc(S(N)(=O)=O)cc2)nc2ccc(-c3ccc(C(N)=O)cc3)nc12` [Example 138, 4-{[4-Ethoxy-6-(4-carbamoylphenyl)-pyrido[3,2-d]pyrimidin-2-ylamino]-methyl}-benzenesulfonamide], the EC50 in data set [1] is under 0.1 µM. For the same molecule, the CC50 at 3 days in data set [2] lay in the range of 5 to 25 µM.
`CCOc1nc(NCc2ccc(S(N)(=O)=O)cc2)nc2ccc(-c3ccc(F)c(NS(=O)(=O)C4CC4)c3)nc12` [Example 139, 4-{[4-Ethoxy-6-(4-(3-cyclopropanesulfonamido-4-fluoro)-phenyl)-pyrido[3,2-d]pyrimidin-2-ylamino]-methyl}-benzenesulfonamide]: in data set [1], the EC50 is under 0.1 µM. Further, in data set [2], the CC50 at 3 days was under 5 µM.
For `CCOc1nc(NCc2ccc(S(N)(=O)=O)cc2)nc2ccc(-c3cccc(N(CCO)S(C)(=O)=O)c3)nc12` [Example 140, 4-{[4-Ethoxy-6-(4-(3-(N-2-hydroxy-ethyl)methanesulfonamido)-phenyl)-pyrido[3,2-d]pyrimidin-2-ylamino]-methyl}-benzenesulfonamide] the same measures were 0.1 to 0.25 µM and over 25 µM.

The term EC50 denotes the midpoint of the concentration-response curve. Read a low EC50 as an effect from little substance. One may read the CC50 as the concentration that lowers cell viability or growth by half. Low values mean greater toxicity to the cells, high ones lower toxicity to the cells.
